Test results taken from PubChem BioAssay (NCI).
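Five compound concentrations were applied to cells in 96-well plates for 48 hours; endpoints were derived by simple linear interpolation of the resulting dose-response curve. TGI denotes the concentration required for complete inhibition of growth.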

Assays:
Experiment in all cases: DTP human tumour cell line panel, 48 h
SK-MEL-5 melanoma = tested on: SK-MEL-5 melanoma
RXF 393 renal = tested on: RXF 393 renal
SF-539 CNS = tested on: SF-539 CNS
UACC-62 melanoma = tested on: UACC-62 melanoma
MDA-N = tested on: MDA-N
NCI-H226 lung = tested on: NCI-H226 lung
CCRF-CEM leukemia = tested on: CCRF-CEM leukemia
SNB-19 CNS = tested on: SNB-19 CNS
HL-60(TB) leukemia = tested on: HL-60(TB) leukemia
TK-10 renal = tested on: TK-10 renal
MDA-MB-435 = tested on: MDA-MB-435
ACHN renal = tested on: ACHN renal
KM12 colon = tested on: KM12 colon
CAKI-1 renal = tested on: CAKI-1 renal
MALME-3M melanoma = tested on: MALME-3M melanoma
SK-OV-3 ovarian = tested on: SK-OV-3 ovarian
MCF7 breast = tested on: MCF7 breast
HS 578T breast = tested on: HS 578T breast
MDA-MB-231 breast = tested on: MDA-MB-231 breast
OVCAR-4 ovarian = tested on: OVCAR-4 ovarian
A549 NSCLC = tested on: A549 NSCLC
SW-620 colon = tested on: SW-620 colon
SK-MEL-28 melanoma = tested on: SK-MEL-28 melanoma
LOX IMVI melanoma = tested on: LOX IMVI melanoma
786-0 renal = tested on: 786-0 renal
HOP-62 NSCLC = tested on: HOP-62 NSCLC
HCC-2998 colon = tested on: HCC-2998 colon
HOP-92 NSCLC = tested on: HOP-92 NSCLC
UO-31 renal = tested on: UO-31 renal
BT-549 breast = tested on: BT-549 breast
RPMI-8226 leukemia = tested on: RPMI-8226 leukemia
DU-145 prostate = tested on: DU-145 prostate
SN12C renal = tested on: SN12C renal
PC-3 prostate = tested on: PC-3 prostate
EKVX NSCLC = tested on: EKVX NSCLC
NCI-H460 lung = tested on: NCI-H460 lung
IGROV1 ovarian = tested on: IGROV1 ovarian
SF-268 CNS = tested on: SF-268 CNS
OVCAR-5 ovarian = tested on: OVCAR-5 ovarian
SF-295 CNS = tested on: SF-295 CNS
K-562 leukemia = tested on: K-562 leukemia
SK-MEL-2 melanoma = tested on: SK-MEL-2 melanoma
U251 CNS = tested on: U251 CNS
SR leukemia = tested on: SR leukemia
COLO 205 colon = tested on: COLO 205 colon
T-47D breast = tested on: T-47D breast
OVCAR-3 ovarian = tested on: OVCAR-3 ovarian
HCT-15 colon = tested on: HCT-15 colon
HCT-116 colon = tested on: HCT-116 colon
UACC-257 melanoma = tested on: UACC-257 melanoma
M14 melanoma = tested on: M14 melanoma
A498 renal = tested on: A498 renal
SNB-75 CNS = tested on: SNB-75 CNS
NCI/ADR-RES ovarian = tested on: NCI/ADR-RES ovarian
MOLT-4 leukemia = tested on: MOLT-4 leukemia
OVCAR-8 ovarian = tested on: OVCAR-8 ovarian
NCI-H23 lung = tested on: NCI-H23 lung
NCI-H522 lung = tested on: NCI-H522 lung
HT29 colon = tested on: HT29 colon

Structure (SMILES): CCCCC(=O)OC[n+]1cccc(-c2c(COC(=O)NC(C)C)c(COC(=O)NC(C)C)c3n2CCC3)c1
- TGI (SK-MEL-5 melanoma): > 100 µM
- TGI (RXF 393 renal): 55.2 µM
- TGI (SF-539 CNS): > 76 µM
- TGI (UACC-62 melanoma): 60.7 µM
- TGI (MDA-N): > 100 µM
- TGI (NCI-H226 lung): > 100 µM
- TGI (CCRF-CEM leukemia): > 77.4 µM
- TGI (SNB-19 CNS): > 100 µM
- TGI (HL-60(TB) leukemia): > 81.9 µM
- TGI (TK-10 renal): > 100 µM
- TGI (MDA-MB-435): > 100 µM
- TGI (ACHN renal): 82.8 µM
- TGI (KM12 colon): > 100 µM
- TGI (CAKI-1 renal): 56 µM
- TGI (MALME-3M melanoma): > 100 µM
- TGI (SK-OV-3 ovarian): > 100 µM
- TGI (MCF7 breast): > 100 µM
- TGI (HS 578T breast): > 100 µM
- TGI (MDA-MB-231 breast): > 100 µM
- TGI (OVCAR-4 ovarian): > 92.6 µM
- TGI (A549 NSCLC): > 100 µM
- TGI (SW-620 colon): > 100 µM
- TGI (SK-MEL-28 melanoma): > 100 µM
- TGI (LOX IMVI melanoma): > 65.9 µM
- TGI (786-0 renal): > 85 µM
- TGI (HOP-62 NSCLC): > 100 µM
- TGI (HCC-2998 colon): > 100 µM
- TGI (HOP-92 NSCLC): 77.2 µM
- TGI (UO-31 renal): 71.7 µM
- TGI (BT-549 breast): > 100 µM
- TGI (RPMI-8226 leukemia): > 100 µM
- TGI (DU-145 prostate): 71.6 µM
- TGI (SN12C renal): > 100 µM
- TGI (PC-3 prostate): > 100 µM
- TGI (EKVX NSCLC): > 100 µM
- TGI (NCI-H460 lung): > 100 µM
- TGI (IGROV1 ovarian): > 100 µM
- TGI (SF-268 CNS): > 81.5 µM
- TGI (OVCAR-5 ovarian): > 100 µM
- TGI (SF-295 CNS): > 100 µM
- TGI (K-562 leukemia): > 100 µM
- TGI (SK-MEL-2 melanoma): 70.6 µM
- TGI (U251 CNS): > 100 µM
- TGI (SR leukemia): 52.3 µM
- TGI (COLO 205 colon): > 100 µM
- TGI (T-47D breast): > 100 µM
- TGI (OVCAR-3 ovarian): > 100 µM
- TGI (HCT-15 colon): > 100 µM
- TGI (HCT-116 colon): > 100 µM
- TGI (UACC-257 melanoma): > 100 µM
- TGI (M14 melanoma): > 100 µM
- TGI (A498 renal): 49.2 µM
- TGI (SNB-75 CNS): > 100 µM
- TGI (NCI/ADR-RES ovarian): > 100 µM
- TGI (MOLT-4 leukemia): > 100 µM
- TGI (OVCAR-8 ovarian): > 100 µM
- TGI (NCI-H23 lung): 98.7 µM
- TGI (NCI-H522 lung): 49.4 µM
- TGI (HT29 colon): > 100 µM

Structure (SMILES): CC(C)=CC(=O)c1[nH]c2ccccc2c1CC(=O)NCCc1cn(C(c2ccccc2)(c2ccccc2)c2ccccc2)cn1
- TGI (SK-MEL-5 melanoma): 3.84 µM
- TGI (RXF 393 renal): 13.5 µM
- TGI (SF-539 CNS): 5.21 µM
- TGI (UACC-62 melanoma): 4.72 µM
- TGI (MDA-N): 9.75 µM
- TGI (NCI-H226 lung): 6.28 µM
- TGI (CCRF-CEM leukemia): > 24.3 µM
- TGI (SNB-19 CNS): > 30.4 µM
- TGI (HL-60(TB) leukemia): 3.44 µM
- TGI (TK-10 renal): > 100 µM
- TGI (MDA-MB-435): 4.42 µM
- TGI (ACHN renal): > 100 µM
- TGI (KM12 colon): 14.2 µM
- TGI (CAKI-1 renal): > 100 µM
- TGI (MALME-3M melanoma): 12.5 µM
- TGI (SK-OV-3 ovarian): > 100 µM
- TGI (MCF7 breast): > 100 µM
- TGI (HS 578T breast): > 56.5 µM
- TGI (MDA-MB-231 breast): 6.36 µM
- TGI (OVCAR-4 ovarian): > 58.7 µM
- TGI (A549 NSCLC): > 27.4 µM
- TGI (SW-620 colon): > 100 µM
- TGI (SK-MEL-28 melanoma): 12.4 µM
- TGI (LOX IMVI melanoma): 4.46 µM
- TGI (786-0 renal): > 100 µM
- TGI (HOP-62 NSCLC): > 100 µM
- TGI (HCC-2998 colon): 3.78 µM
- TGI (HOP-92 NSCLC): > 26.1 µM
- TGI (UO-31 renal): > 29.4 µM
- TGI (BT-549 breast): 11 µM
- TGI (RPMI-8226 leukemia): 5.23 µM
- TGI (DU-145 prostate): > 100 µM
- TGI (SN12C renal): > 23.9 µM
- TGI (PC-3 prostate): 6.75 µM
- TGI (EKVX NSCLC): > 100 µM
- TGI (NCI-H460 lung): 10.6 µM
- TGI (IGROV1 ovarian): > 45 µM
- TGI (SF-268 CNS): > 53.3 µM
- TGI (OVCAR-5 ovarian): 87.7 µM
- TGI (SF-295 CNS): > 100 µM
- TGI (K-562 leukemia): > 59.6 µM
- TGI (SK-MEL-2 melanoma): 3.54 µM
- TGI (U251 CNS): 9.17 µM
- TGI (SR leukemia): 4.88 µM
- TGI (COLO 205 colon): 3.4 µM
- TGI (T-47D breast): > 100 µM
- TGI (OVCAR-3 ovarian): > 100 µM
- TGI (HCT-15 colon): > 40.4 µM
- TGI (HCT-116 colon): 10.6 µM
- TGI (UACC-257 melanoma): > 67.4 µM
- TGI (M14 melanoma): 4.8 µM
- TGI (A498 renal): > 50.5 µM
- TGI (SNB-75 CNS): > 100 µM
- TGI (NCI/ADR-RES ovarian): 10.8 µM
- TGI (MOLT-4 leukemia): 5.49 µM
- TGI (OVCAR-8 ovarian): > 100 µM
- TGI (NCI-H23 lung): > 36.2 µM
- TGI (NCI-H522 lung): 19.8 µM
- TGI (HT29 colon): > 42.7 µM
